Laboratory results from US4513007A, “Method for treating heart disease” (priority 1983, dated 1985).

Key:
[1] = test system: patients with fresh myocardial infarction; type: in vivo, human (patients)
Description: V. A preliminary clinical study was conducted on 100 patients with fresh myocardial infarction who had to fulfill the following criteria for admission: typical history of chest pain, with onset of less than six hours duration and having anterior or anteroseptal transmural myocardial infarction evidenced by 12 leads EKG criteria. 50 patients received the usual conventional drugs advocated in the hospital where the study was undertaken (potent analgesic, nitroglycerin, diuretics, lidocain, digitalis) and served as a comparison or control group. The other 50 patients received the conventional drugs and in addition calcium dobesilate which was given as follows: 100 mg/kg of calcium dobesilate by i.v. perfusion in 300 ml glucose, on admission 50-100 mg/kg of calcium dobesilate by i.v. perfusion in 300 ml glucose every hour during the subsequent 3 hours 25 mg/kg of calcium dobesilate by i.v. perfusion in 300 ml glucose every 6 hours until the 3rd-4th day after admission The treatment was then continued, by giving 500-1,000 mg of calcium dobesilate orally thrice daily.

microvessels = details: cited from earlier work
[2] = test system: infarct size, left ventricle; type: in vivo, mongrel dogs
Description: IV. In a fourth study the influence of calcium dobesilate on infarct size was evaluated by the double-blind technique. The study was performed in 14 mongrel dogs of either gender weighing about 23-25 kg.
Anesthesia was induced and maintained with sodium pentobarbital (30 mg/kg) and ventilation was maintained through an endotracheal tube with a Harvard respirator providing 200-300 cc of room air/breath at a rate of 18-20/minute.
Coronary artery occlusion in all dogs was obtained by ligation of the LAD just distal to the first septal branch.
The left circumflex artery (LCC) was not ligated and its territory being non-infarcted was used as a control. After ligation of the LAD artery the chest was closed. Calcium dobesilate or the placebo were administered by intravenous perfusion during 7 days according to the following schedule:
0-1 hour after LAD ligation 100 mg/kg i.v. in 100 ml saline
2-3 hours after LAD ligation 100 mg/kg i.v. in 100 ml saline
4-6 hours after LAD ligation 75 mg/kg i.v. in 100 ml saline
7-12 hours after LAD ligation 50 mg/kg i.v. in 100 ml saline
13-24 hours after LAD ligation 50 mg/kg i.v. in 100 ml saline
2-5 days after LAD ligation 3 × 50 mg/kg i.v. in 50 ml saline
6-7 days after LAD ligation 3 × 25 mg/kg i.v. in 50 ml
After 7 days the animals were killed and the hearts were sliced in sections of 1 cm (from the apex to the base). The infarcted and non-infarcted zones of the left ventricle were planimetered to evaluate the infarct size in % in relation to the whole left ventricle. Then the infarcted and non infarcted zones were weighed to determine the size of the infarcted zone in grams in relation to the size of the whole left ventricle.

rabbit ear = details: Roskam's method; U.S. Pat. No. 3,509,207; cited from earlier work
[3] = test system: cardiac arrhythmia in dogs; experiment: cardiac arrhythmia in dogs induced by electrical stimulation (third study); type: in vivo, mongrel dogs; details: 4 hours of stimulation (>180 beats/minute); 50-75 mg/kg i.v. bolus; untreated: tachyarrhythmia bursts, extrasystoles
Description: III. In a third study it was evaluated the effect of calcium dobesilate on cardiac arrhythmia in dogs induced by electrical stimulation, to produce EKG changes and cardiac lymphostasis similar to those observed in sick sinus syndrome in man (4,5). […] The other three dogs served as controls. EKG records were made 4 hours later in all animal.

[4] = test system: dogs with experimental myocardial infarction; experiment: electrocardiographic tracings in dogs after coronary artery ligation (second study); type: in vivo, mongrel dogs; details: group III treated dogs, 360 min, 100 mg/kg i.v.
Description: In 7 dogs the coronary artery was occluded and lymphangiography was performed post-mortem 30 minutes after the occlusion (group II). In 6 other dogs the coronary artery was occluded and lymphangiography was performed 360 minutes after coronary artery occlusion (group III). An additional 12 dogs were treated with CLS 2210 (calcium dobesilate) in a single dose of 100 mg/kg by intravenous infusion immediately after coronary artery occlusion. In 6 of these dogs, post-mortem lymphangiography was performed 30 minutes following coronary artery occlusion (group II), and in the other 6 it was performed 360 minutes after occlusion (group III).

cardiac lymphatics [5] = experiment: cardiac lymphangiography in normal dogs and dogs with LAD coronary artery ligation (second study); type: in vivo, mongrel dogs; details: intravenous infusion, dogs
cardiac lymphatics [6] = experiment: post-mortem cardiac lymphangiography in normal dog hearts (first study); type: in vivo, mongrel dogs; details: normal myocardium; for No of lymphatics per cm^2 / Equivalence to ventricular surface: 6 h after i.v., Hyaluronidase 500 I.U./kg, calcium dobesilate 50-100 mg/kg; for No of lymphatics per cm^2: controls 1.64 ± 0.11, P <0.001 in relation to control; for Equivalence to ventricular surface: controls 6.6%, P <0.001
Description: I. In a first study the effect of calcium dobesilate was compared to Hyaluronidase on the visualization of cardiac lymphatics in normal dog hearts (not infarcted). 18 healthy mongrel dogs of either gender were divided into 3 groups each of 6 animals. […] The dogs in the second group received an intravenous injection of Hyaluronidase (500 I.U./kg) and those of the third group received an i.v. injection of calcium dobesilate (50-100 mg/kg). Post-mortem cardiac lymphangiography was performed after killing the animals and extracting the hearts 6 hours after the administration of either product. The results of the 2 groups were compared to that of the controls. The technique of cardiac lymphangiography used was that described by Szlavy L., Adams D., Hollenberg N. K. and Abrams H., published in the American Heart Journal, Vol. 100, Nr. 3, pp 323-331, Sept. 1980 (8). The technique consisted in injecting a contrast agent (30 g barium sulphate+2-5 ml of Iodamid 420) into the superficial lymphatic vessels of the heart using a Becton-Dickinson lymphangiography set. The contrast agent was injected under gentle manual pressure until the lymphatic vessels in the left ventricle were filled (multiple injections starting from the apex to the base of the heart). The heart was then X-rayed with 5-fold magnification using a 0,1 mm focal spot X-raytube and with exposure factors of 50 KV, 0,01 second and 30 mA. With this technique it was possible to visualize the 40-80 microns lymphatic vessels. A grid was applied on the lymphangiograms which consisted of lines drawn at right angles, 1 cm apart. Each 5×5 cm^2 served as a single unit as it corresponded to 1 cm^2 of the left ventricular myocardium (5-fold magnification was used for filming). A point was counted whenever a crossing coincided with a visualized lymph vessel in the lymphangiogram. In this way a quantitative index was obtained based on the number of lymph vessels/cm^2 or to the percent of the left ventricular surface area.

acute toxicity study = details: in vivo, mice and rats
cardiac lymphatics [7] = experiment: cardiac lymphangiography in normal dogs and dogs with LAD coronary artery ligation (second study); type: in vivo, mongrel dogs; details: 100 mg/kg i.v.
Description: II. The second study was performed to evaluate the influence of calcium dobesilate on the visualization of the lymphatic vessels in the infarcted and non-infarcted zones after ligation of the left anterior descending (LAD) coronary artery in 37 mongrel dogs. In 6 dogs the coronary artery was not occluded (group I). […] Therefore a larger control series was not required. In 6 normal dogs CLS 2210 (calcium dobesilate) was administered in a single dose of 100 mg/kg by intravenous infusion in 100 ml of physiological saline or glucose. Six hours after administration of CLS 2210 (calcium dobesilate) the dogs were killed and cardiac lymphangiography was performed post-mortem (group I) as described above (8). In 7 dogs the coronary artery was occluded and lymphangiography was performed post-mortem 30 minutes after the occlusion (group II). In 6 other dogs the coronary artery was occluded and lymphangiography was performed 360 minutes after coronary artery occlusion (group III). An additional 12 dogs were treated with CLS 2210 (calcium dobesilate) in a single dose of 100 mg/kg by intravenous infusion immediately after coronary artery occlusion. In 6 of these dogs, post-mortem lymphangiography was performed 30 minutes following coronary artery occlusion (group II), and in the other 6 it was performed 360 minutes after occlusion (group III). The infarcted zone of myocardium was identified in vivo by direct inspection after coronary artery occlusion according to the usual indices, including color change and disordered contraction. […] Both the infarcted (LAD) and non-infarcted zones (the non-[…] zone was the region of the left circumflex coronary artery or LCC) were evaluated, the non-infarcted zone serving for comparison. Mean values were presented with the standard error of the mean as the index of dispersion. Statistical analysis was done, where appropriate, with the student t-test or by non-parametric methods in the form of the Wilcoxon ranks sum test or Fisher's s exact test. The null hyothesis was rejected when p was less than 0,05.

[8] = test system: patients with acute anterior myocardial infarction; details: intravenous; cited from earlier work
[9] = test system: dogs with coronary occlusion; details: cited from earlier work
[10] = compared to controls (FIGS. 1-3)

With `O=S(=O)(O)c1cc(O)ccc1O` [calcium dobesilate, calcium 2,5-dihydroxybenzenesulfonate] the “precordial ST-segment elevation” value ([1]; EKG tracings, compared to controls) was “rapid and much greater decrease”, the “consumption of conventional drugs (analgesic, nitroglycerin, diuretic, lidocain and digitalis)” value ([1]; compared to control group, i.v. then oral, added to conventional drugs) was “considerably reduced” and the chest pain ([1]; compared to controls) was “much less”. The “serum levels of CPK” value [1, 10] was “significant reduction”, the “serum levels of LDH” value [1, 10] was “significant reduction” and the “serum levels of SGOT” value [1, 10] was “significant reduction”. The short-term mortality ([1]; controls 15%) was 2%, the “mobilisation of patients (average)” value ([1]; controls average 7 days) was 4 days and the side-effects ([1]; human, in vivo) was “no side-effects”. The tolerability ([1]; human, in vivo) was “well tolerated”, the anti-oedema effect (microvessels) was “anti-oedema” and the “capillary fragility and permeability” value (microvessels) was “reducing”. The viscosity lowering effect (microvessels) was “viscosity lowering effect”, the “drug's tolerance during the experimental period” value ([2]; dog, in vivo) was “perfect” and the “side-effects attributable to the drug” value ([2]; dog, in vivo, iv) was “No side-effects”. For the same compound, the “infarct size % of whole area of left ventricle, planimetry, MEAN” value ([2]; mean of 8 dogs, i.v. perfusion 7 days, placebo mean 54,1%) was 26,2%, the “infarct size % of left ventricle, weight, MEAN” value ([2]; mean of 8 dogs, i.v. perfusion 7 days, placebo mean 54,4%) was 27,9% and the “reduction in infarct size compared to placebo” value ([2]; planimetry and weight analysis, p<0,001) was 50 % less. For the same compound, the “mean bleeding time of the rabbit ear” value (rabbit ear) was “reduce”, the “EKG tracings after rapid electrical stimulation” value [3] was “practically normal EKG tracings” and the ST-segment elevation [4] was “a fall in the ST-segment elevation”. The “most effective infused dose” value (cardiac lymphatics [5]) was 100 mg per kg body weight, the “number of visualized lymphatics/cm^2 and equivalent left ventricular surface, comparison with Hyaluronidase and control groups” value (cardiac lymphatics [6]) was “much higher” and the “No of lymphatics per cm^2” value (cardiac lymphatics [6]) was 5.22 ± 0.34 per cm^2. For the same compound, the “Equivalence to ventricular surface” value (cardiac lymphatics [6]) was 20.9%, the LD50 (acute toxicity study; intravenous) was 750 mg/kg and the LD50 (acute toxicity study; oral) was > 4000 mg/kg. For the same compound, the “mean points count/cm^2, LCC zone (non infarcted)” value (cardiac lymphatics [7]; group I, normal dogs without MI, 360 min, untreated 1,84 ± 0,18, p <0,001) was 5,22 ± 0,34 points/cm^2, the “ventricular surface occupied by lymphatics” value (“ventricular surface occupied” for short) (cardiac lymphatics [7]; group I, normal dogs without MI, 360 min, untreated 7,2%, listed as CLS 2210, 100 mg/kg) was 20.9% and the “ventricular surface occupied” value (cardiac lymphatics [7]; group I, normal dogs without MI, 360 min, untreated 7,2%, listed as CLS (ca. dobesilate), 100 mg/kg) was 20,9%. For the same compound, the “mean points count/cm^2, LAD zone” value (cardiac lymphatics [7]; group I, normal dogs without myocardial infarction, 360 min, untreated 1,81 ± 0,18, p <0,001) was 5,20 ± 0,34 points/cm^2, the “point counts, normal myocardium” value (cardiac lymphatics [7]; group I, normal dogs, 6 h, p<0,001 vs untreated normal myocardium) was 5,22±0,34 points/cm^2 and the “ventricular surface occupied” value (cardiac lymphatics [7]; group II, dogs with MI, 30 min, untreated 3,1%) was 9,8%. The “mean points count/cm^2, LAD zone (infarcted)” value (cardiac lymphatics [7]; group II, dogs with MI, 30 min after occlusion, untreated 0,78 ± 0,07, p <0,01, listed as CLS 2210, 100 mg/kg) was 2,43±0,06 points/cm^2, the “mean points count/cm^2, LAD zone (infarcted)” value (cardiac lymphatics [7]; group II, dogs with MI, 30 min after occlusion, untreated 0,78 ± 0,07, p <0,01, listed as CLS (ca. dobesilate), 100 mg/kg) was 2,43 ± 0,06 points/cm^2 and the “mean points count/cm^2, LCC zone (non infarcted)” value (cardiac lymphatics [7]; group II, dogs with MI, 30 min after occlusion, untreated 1,47 ± 0,07, listed as CLS 2210, 100 mg/kg) was 2,75±0,22 points/cm^2. The “mean points count/cm^2, LCC zone (non infarcted)” value (cardiac lymphatics [7]; group II, dogs with MI, 30 min after occlusion, untreated 1,47 ± 0,07, listed as CLS (ca. dobesilate), 100 mg/kg) was 2,75 ± 0,22 points/cm^2, the “ventricular surface occupied” value (cardiac lymphatics [7]; group III, dogs with MI, 360 min, untreated 3,2%) was 24,8% and the “mean points count/cm^2, LAD zone (infarcted)” value (cardiac lymphatics [7]; group III, dogs with MI, 360 min after occlusion, untreated 0,80 ± 0,08, p <0,001, listed as CLS 2210) was 6,15±0,18 points/cm^2. The “mean points count/cm^2, LAD zone (infarcted)” value (cardiac lymphatics [7]; group III, dogs with MI, 360 min after occlusion, untreated 0,80 ± 0,08, p <0,001, listed as CLS (ca. dobesilate)) was 6,15 ± 0,18 points/cm^2, the “mean points count/cm^2, LCC zone (non infarcted)” value (cardiac lymphatics [7]; group III, dogs with MI, 360 min after occlusion, untreated 2,57 ± 0,05, listed as CLS 2210, 100 mg/kg) was 2,45±0,13 points/cm^2 and the “mean points count/cm^2, LCC zone (non infarcted)” value (cardiac lymphatics [7]; group III, dogs with MI, 360 min after occlusion, untreated 2,57 ± 0,05, listed as CLS (ca. dobesilate), 100 mg/kg) was 2,45 ± 0,13 points/cm^2.
For Hyaluronidase, the “EKG signs of necrosis” value [8] is listed as “attenuate”, the ST segment elevation [9] is listed as “reduction” and the “infarct size (histological planimetric measurements)” value [9] is listed as “decrease”. The “myocardial CK (creatinine-Kinase)” value [9] was “diminution”, the “number of lymphatic vessels in the area of infarction” value [9] was “increase” and the “No of lymphatics per cm^2” value (cardiac lymphatics [6]) was 3.45 ± 0.18 per cm^2. For the same compound, the “Equivalence to ventricular surface” value (cardiac lymphatics [6]) was 13.8%.
